Laboratory results published in patent US9464064B2, “HCV helicase inhibitors and methods of use thereof” (University of Kansas, priority 2011, dated 2016).

Test: Parallel Artificial Membrane Permeability Assay (PAMPA)
Format: in vitro ADME
Settings: acceptor pH 7.4
Procedure: Permeability was assessed using the Parallel Artificial Membrane Permeability Assay (PAMPA) in a 96-well format. All liquid dispensed and transfer steps were performed with the FREEDOM EVO automated liquid handler (Tecan US). Measurements were performed in an aqueous buffer solution (PRISMA HT, pION Inc.) at pH 5.0, 6.2, and 7.4, in duplicate. A “sandwich” plate (pION Inc.) composed of a donor bottom plate and an acceptor filter plate was used. The donor wells contained the compounds in 180 μl system solution, and magnetic stir bars. The filter on the bottom of each acceptor well was coated with GIT-0 lipid (pION Inc.) and filled with 200 μl of Acceptor Sink Buffer, pH 7.4 (pION Inc.) containing a surfactant to mimic the function of serum proteins. The permeation time was 30 minutes and moderate stirring (equivalent to 40 μm Aqueous Boundary Layer thickness) was applied using the GUT-BOX (pION, Inc.). After the permeation time, the sandwich was disassembled and the amount of compound present in both the donor and acceptor wells was measured by UV absorbance (250-498 nm) using the Infinite M200 (Tecan US) and compared to spectra obtained from reference standards. Mass balance was used to determine the amount of material embedded in the membrane filter. The effective permeability, Pe, was calculated using the software PAMPA Evolution Plus, version 3.2 (pION Inc). Verapamil HCl (considered highly permeable), Metoprolol (considered moderately permeable), and Ranitidine (considered poorly permeable) were used as reference standards. Permeation time was 30 minutes. Final DMSO concentration was 0.5% and standards and test compounds were assayed at 100 μM.

Cc1ccc2nc(-c3ccc4nc(-c5ccc(NC(=O)c6cccc(Cl)c6)cc5)sc4c3)sc2c1S(=O)(=O)O [Compound 17, 2′-(4-(3-chlorobenzamido)phenyl)-6-methyl-[2,6′-bibenzo[d]thiazole]-7-sulfonic acid]
Papp at 30 min, 100 μM (PAMPA, donor pH 6.2, read-out: PAMPA Pe): 0.22 ×10⁻⁶ cm/s
PAMPA Pe (donor pH 5.0): 0 (5.0) ×10^−6 cm/s
PAMPA Pe (donor pH 7.4): 0 (7.4) ×10^−6 cm/s
